How the values were obtained:
[1] = molecular target: soluble human BACE1 catalytic domain (Homo sapiens (Human), UniProt P56817); assay: BACE-1 Ki Assay (BACE-1 HTRF FRET Assay); assay type: biochemical; settings: Ki calculated from IC50 using the Cheng-Prusoff equation; QSY7-APPswe-Eu substrate 200 nM, pH 5.0
Method: In another embodiment, the compounds of the invention comprise the example compounds shown in the table below, or a tautomer thereof, or a pharmaceutically acceptable salt of said compound or said tautomer. Examples 2 to 42 were prepared using the method similar to Ex. 1. Example 44 to 51 were synthesized using the method similar to Ex. 43. BACE-1 values reported in this table were measured using BACE-1 Ki Assay (BACE-1 HTRF FRET Assay).
• Reagents: Na^+-Acetate pH 5.0; 1% Brij-35; Glycerol; Dimethyl Sulfoxide (DMSO); Recombinant human soluble BACE1 catalytic domain (>95% pure); APP Swedish mutant peptide substrate (QSY7-APP^swe-Eu): QSY7-EISEVNLDAEFC-Europium-amide.
A homogeneous time-resolved FRET assay can be used to determine IC50 values for inhibitors of the soluble human BACE1 catalytic domain. This assay monitors the increase of 620 nm fluorescence that resulted from BACE1 cleavage of an APPswedish APP^swe mutant peptide FRET substrate (QSY7-EISEVNLDAEFC-Europium-amide). This substrate contains an N-terminal QSY7 moiety that serves as a quencher of the C-terminal Europium fluorophore (620 nm Em). In the absence of enzyme activity, 620 nm fluorescence is low in the assay and increased linearly over 3 hours in the presence of uninhibited BACE1 enzyme. Inhibition of BACE1 cleavage of the QSY7-APP^swe-Eu substrate by inhibitors is manifested as a suppression of 620 nm fluorescence.
Varying concentrations of inhibitors at 3× the final desired concentration in a volume of 10 ul are preincubated with purified human BACE1 catalytic domain (3 nM in 10 μl) for 30 minutes at 30° C. in reaction buffer containing 20 mM Na-Acetate pH 5.0, 10% glycerol, 0.1% Brij-35 and 7.5% DSMO. Reactions are initiated by addition of 10 μl of 600 nM QSY7-APP^swe-Eu substrate (200 nM final) to give a final reaction volume of 30 μl in a 384 well Nunc HTRF plate. The reactions are incubated at 30° C. for 1.5 hours. The 620 nm fluorescence is then read on a Rubystar HTRF plate reader (BMG Labtechnologies) using a 50 millisecond delay followed by a 400 millisecond acquisition time window. Inhibitor IC50 values are derived from non-linear regression analysis of concentration response curves. Ki values are then calculated from IC50 values using the Cheng-Prusoff equation using a previously determined […] of 8 μM for the QSY7-APP^swe-Eu substrate at BACE1.

[2] = molecular target: purified human autoBACE-2 (Homo sapiens (Human), UniProt Q9Y5Z0); assay: BACE-2 Assay (BACE-HTRF assay); assay type: biochemical; settings: Ki calculated from IC50 using the Cheng-Prusoff equation; QSY7-EISEVNLDAEFC-Eu-amide substrate 200 nM, pH 5.0
purified human autoBACE-2, sequence (Q9Y5Z0 63-473 limits assumed): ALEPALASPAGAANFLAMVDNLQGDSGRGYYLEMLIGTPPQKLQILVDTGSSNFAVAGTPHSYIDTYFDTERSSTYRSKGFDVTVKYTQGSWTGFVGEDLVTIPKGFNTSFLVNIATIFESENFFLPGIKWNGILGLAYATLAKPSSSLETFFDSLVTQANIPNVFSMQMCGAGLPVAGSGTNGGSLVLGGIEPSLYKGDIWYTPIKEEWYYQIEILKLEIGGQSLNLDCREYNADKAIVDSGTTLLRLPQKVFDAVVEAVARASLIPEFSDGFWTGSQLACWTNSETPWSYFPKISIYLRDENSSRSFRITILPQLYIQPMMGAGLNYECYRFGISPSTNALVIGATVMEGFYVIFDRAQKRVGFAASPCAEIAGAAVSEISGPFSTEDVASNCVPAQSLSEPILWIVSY
Method: Inhibitor IC50s at purified human autoBACE-2 are determined in a time-resolved endpoint proteolysis assay that measures hydrolysis of the QSY7-EISEVNLDAEFC-Eu-amide FRET peptide substrate (BACE-HTRF assay). BACE-mediated hydrolysis of this peptide results in an increase in relative fluorescence (RFU) at 620 nm after excitation with 320 nm light. Inhibitor compounds, prepared at 3× the desired final concentration in 1×BACE assay buffer (20 mM sodium acetate pH 5.0, 10% glycerol, 0.1% Brij-35) supplemented with 7.5% DMSO are pre-incubated with an equal volume of autoBACE-2 enzyme diluted in 1×BACE assay buffer (final enzyme concentration 1 nM) in black 384-well NUNC plates for 30 minutes at 30° C. […] DMSO is present at […] final concentration in the assay. Following laser excitation of sample wells at 320 nm, the fluorescence signal at 620 nm is collected for 400 ms following a 50 μs delay on a RUBYstar HTRF plate reader (BMG Labtechnologies). Raw RFU data is normalized to maximum (1.0 nM BACE/DMSO) and minimum (no enzyme/DMSO) RFU values. IC50s are determined by nonlinear regression analysis (sigmoidal dose response, variable slope) of percent inhibition data with minimum and maximum values set to 0 and 100 percent respectively. Similar IC50s are obtained when using raw RFU data. The Ki values are calculated from the IC50 using the Cheng-Prusoff equation.

soluble human BACE1 catalytic domain, sequence (P56817 75-416): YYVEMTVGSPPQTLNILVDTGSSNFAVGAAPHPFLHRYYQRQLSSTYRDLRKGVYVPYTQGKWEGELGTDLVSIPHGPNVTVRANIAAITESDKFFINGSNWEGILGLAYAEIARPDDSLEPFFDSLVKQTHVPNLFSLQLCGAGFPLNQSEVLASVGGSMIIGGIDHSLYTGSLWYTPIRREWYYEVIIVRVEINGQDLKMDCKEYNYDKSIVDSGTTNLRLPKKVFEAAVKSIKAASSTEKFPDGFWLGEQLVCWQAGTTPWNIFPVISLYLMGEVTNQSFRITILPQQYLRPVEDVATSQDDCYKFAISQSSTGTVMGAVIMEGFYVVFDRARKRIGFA

Row | Compound | Ki [1] | Ki [2]
1 | Cc1ncc2c(n1)C[C@@](C)(c1sc(-c3cccc(-c4ncno4)c3)cc1Cl)NC2=N [Example 29, (7S)-7-{3-chloro-5-[3-(1,2,4-oxadiazol-5-yl)phenyl]thiophen-2-yl}-2,7-dimethyl-7,8-dihydropyrido[4,3-d]pyrimidin-5(6H)-imine] | 0.482 µM | 0.0797 µM
2 | C[C@@]1(c2cc(-c3cccc(C#N)c3)cs2)Cc2nc(C3CC3)ncc2C(=N)N1 [Example 32, 3-{5-[(7S)-2-cyclopropyl-5-imino-7-methyl-5,6,7,8-tetrahydropyrido[4,3-d]pyrimidin-7-yl]thiophen-3-yl}benzonitrile] | 0.128 µM | 0.0656 µM
3 | C[C@@]1(c2cc(-c3cncc(C#N)c3)cs2)Cc2nc(C3CC3)ncc2C(=N)N1 [Example 35, 5-{5-[(7S)-2-cyclopropyl-5-imino-7-methyl-5,6,7,8-tetrahydropyrido[4,3-d]pyrimidin-7-yl]thiophen-3-yl}pyridine-3-carbonitrile] | 0.224 µM | 0.142 µM
4 | C[C@@]1(c2sc(-c3cncc(C#N)c3)cc2Cl)Cc2nc(C3CC3)ncc2C(=N)N1 [Example 37, 5-{4-chloro-5-[(7S)-2-cyclopropyl-5-imino-7-methyl-5,6,7,8-tetrahydropyrido[4,3-d]pyrimidin-7-yl]thiophen-2-yl}pyridine-3-carbonitrile] | 0.0947 µM | 0.0442 µM
5 | C[C@@]1(c2cc(-c3cncc(C#N)c3)cs2)Cc2nc(C(F)(F)F)ncc2C(=N)N1 [Example 41, 5-{5-[(7S)-5-imino-7-methyl-2-(trifluoromethyl)-5,6,7,8-tetrahydropyrido[4,3-d]pyrimidin-7-yl]thiophen-3-yl}pyridine-3-carbonitrile] | 0.208 µM | 0.0977 µM

The next molecules have a lower Ki [1] than those just listed; values first:

Row | Ki [1] | Ki [2] | Compound
6 | 0.085 µM | 0.215 µM | C[C@@]1(c2cc(-c3cccc(-c4nnco4)c3)cs2)Cc2nc(C3CC3)ncc2C(=N)N1 [Example 34, (7S)-2-cyclopropyl-7-methyl-7-{4-[3-(1,3,4-oxadiazol-2-yl)phenyl]thiophen-2-yl}-7,8-dihydropyrido[4,3-d]pyrimidin-5(6H)-imine]
7 | 0.0582 µM | 0.0231 µM | C[C@@]1(c2cc(-c3cccc(C#N)c3)cs2)Cc2nc(C(F)(F)F)ncc2C(=N)N1 [Example 40, 3-{5-[(7S)-5-imino-7-methyl-2-(trifluoromethyl)-5,6,7,8-tetrahydropyrido[4,3-d]pyrimidin-7-yl]thiophen-3-yl}benzonitrile]
8 | 0.0489 µM | 0.0215 µM | C[C@@]1(c2sc(-c3cccc(C#N)c3)cc2Cl)Cc2nc(C3CC3)ncc2C(=N)N1 [Example 36, 3-{4-chloro-5-[(7S)-2-cyclopropyl-5-imino-7-methyl-5,6,7,8-tetrahydropyrido[4,3-d]pyrimidin-7-yl]thiophen-2-yl}benzonitrile]
9 | 0.0382 µM | 0.0048 µM | COc1cccc2cc(-c3csc([C@]4(C)Cc5nc(C6CC6)ncc5C(=N)N4)c3)[nH]c12 [Example 33, (7S)-2-cyclopropyl-7-[4-(7-methoxy-1H-indo1-2-yl)thiophen-2-yl]-7-methyl-7,8-dihydropyrido[4,3-d]pyrimidin-5(6H)-imine]
10 | 0.0289 µM | 0.0015 µM | COc1cccc2cc(-c3csc([C@]4(C)Cc5nc(C(F)(F)F)ncc5C(=N)N4)c3)[nH]c12 [Example 39, (7S)-7-[4-(7-methoxy-1H-indo1-2-yl)thiophen-2-yl]-7-methyl-2-(trifluoromethyl)-7,8-dihydropyrido[4,3-d]pyrimidin-5(6H)-imine]
11 | 0.0223 µM | 0.002 µM | COc1cccc2cc(-c3cc(Cl)c([C@]4(C)Cc5nc(C6CC6)ncc5C(=N)N4)s3)[nH]c12 [Example 38, (7S)-7-[3-chloro-5-(7-methoxy-1H-indo1-2-yl)thiophen-2-yl]-2-cyclopropyl-7-methyl-7,8-dihydropyrido[4,3-d]pyrimidin-5(6H)-imine]

— US9868738B2, “Diazine-fused amidines as BACE inhibitors, compositions, and their use” (Merck Sharp & Dohme Corp., priority 2014, dated 2018)
